Tests used:
Assay in all cases: relative viability (nuclei count vs DMSO), 5 days (fraction); higher = more cells survive
Shikonin + Palbociclib = compound: CC(C)=CC[C@@H](O)C1=CC(=O)c2c(O)ccc(O)c2C1=O [Shikonin] + CC(=O)c1c(C)c2cnc(Nc3ccc(N4CCNCC4)cn3)nc2n(C2CCCC2)c1=O [Palbociclib] (partner 0.5 µM)
In short: (§1)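 Lung cancer cell lines in 1536-well plates were dosed by pin tool the day after seeding, either with one drug alone or with a fixed anchor-drug dose plus five library-drug doses (not always all listed) in √10 steps. After 5 days, cells were fixed and their nuclei stained in one step (final 0.05% Triton X-100, 1% formaldehyde, 1 ug/ml Hoechst), then counted on 4× images. Relative viability is the nuclei count in treated wells divided by that in vehicle wells. Values are medians of duplicate plates.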

Shikonin + Luminespib = compound: CC(C)=CC[C@@H](O)C1=CC(=O)c2c(O)ccc(O)c2C1=O [Shikonin] + CCNC(=O)c1noc(-c2cc(C(C)C)c(O)cc2O)c1-c1ccc(CN2CCOCC2)cc1 [Luminespib] (partner 0.01 µM)
In short: as §1

Shikonin + AZD7762 = compound: CC(C)=CC[C@@H](O)C1=CC(=O)c2c(O)ccc(O)c2C1=O [Shikonin] + NC(=O)Nc1cc(-c2cccc(F)c2)sc1C(=O)N[C@H]1CCCNC1 [AZD7762] (partner 0.2 µM)
In short: as §1

[1] = compound: CC(C)N(CCCNC(=O)Nc1ccc(C(C)(C)C)cc1)C[C@H]1O[C@@H](n2ccc3c(N)ncnc32)[C@H](O)[C@@H]1O + CC(=O)c1c(C)c2cnc(Nc3ccc(N4CCNCC4)cn3)nc2n(C2CCCC2)c1=O [Palbociclib] (partner 0.5 µM)
In short: as §1

| Cell Line | relative viability (Shikonin + Palbociclib; first compound 0.01 µM) | relative viability (Shikonin + Palbociclib; first compound 0.1 µM) | relative viability (Shikonin + Palbociclib; first compound 0.3162 µM) | relative viability (Shikonin + Palbociclib; first compound 1 µM) | relative viability (Shikonin + Luminespib; first compound 0.01 µM) | relative viability (Shikonin + Luminespib; first compound 0.1 µM) | relative viability (Shikonin + Luminespib; first compound 0.3162 µM) | relative viability (Shikonin + Luminespib; first compound 1 µM) | relative viability (Shikonin + AZD7762; first compound 0.01 µM) | relative viability (Shikonin + AZD7762; first compound 0.1 µM) | relative viability (Shikonin + AZD7762; first compound 0.3162 µM) | relative viability (Shikonin + AZD7762; first compound 1 µM) | relative viability ([1]; first compound 0.08 µM) | relative viability ([1]; first compound 0.253 µM) | relative viability ([1]; first compound 0.8 µM) | relative viability ([1]; first compound 2.53 µM) | relative viability ([1]; first compound 8 µM) |
| --- | --- | --- | --- | --- | --- | --- | --- | --- | --- | --- | --- | --- | --- | --- | --- | --- | --- |
| NCI-H522 | 1.03 | 1.28 | 0.936 | 1.17 | 1.09 | 0.917 | 1.29 | 1.31 | 0.912 | 0.957 | 0.864 | 0.806 | 0.85 | 1.05 | 1.09 | 1.09 | 1.4 |
| PC-3 [JPC-3] | 0.59 | 0.589 | 0.538 | 0.552 | 0.727 | 0.677 | 0.665 | 0.622 | 0.825 | 0.846 | 0.755 | 1 | 0.54 | 0.53 |  | 0.507 | 0.487 |
| SW 900 | 0.563 | 0.559 | 0.547 | 0.542 | 0.192 | 0.173 | 0.207 | 0.155 | 0.769 | 0.634 | 0.262 | 0.542 | 0.564 | 0.521 |  | 0.543 | 0.473 |
| A-427 | 0.503 | 0.545 | 0.528 | 0.553 | 0.743 | 1.21 | 0.814 | 0.88 | 0.771 | 0.78 | 0.694 | 0.75 | 0.525 | 0.546 | 0.556 | 0.578 | 0.515 |
| NCI-H1792 | 0.717 | 0.493 | 0.729 | 0.7 | 0.554 | 0.361 | 0.371 | 0.544 | 0.663 | 0.618 | 0.604 | 0.694 | 0.631 | 0.671 | 0.773 | 0.639 | 0.643 |
| LCLC-97TM1 | 0.293 | 0.279 | 0.279 | 0.23 | 0.833 | 0.776 | 0.878 | 0.717 | 0.286 | 0.188 | 0.227 | 0.362 | 0.195 | 0.247 | 0.218 | 0.236 | 0.252 |
| NCI-H1703 |  |  |  |  |  |  |  |  |  | 0.125 | 0.124 | 0.113 |  |  |  |  |  |
| LCLC-103H | 0.462 | 0.498 | 0.521 | 0.429 | 1.01 | 1.17 | 1.06 | 0.993 | 0.796 | 0.889 | 0.815 | 0.954 | 0.488 | 0.47 | 0.438 | 0.482 | 0.459 |
| SK-LU-1 | 0.379 | 0.404 | 0.437 | 0.373 | 0.212 | 0.215 | 0.198 | 0.187 |  |  |  |  | 0.431 | 0.42 | 0.332 | 0.389 | 0.36 |
| BEN | 0.47 | 0.465 | 0.437 | 0.54 | 0.505 | 0.469 | 0.474 | 0.849 | 0.744 | 0.807 | 0.718 | 0.694 | 0.446 | 0.509 | 0.453 | 0.503 | 0.445 |

— the supplement of paper PMC10307832
